Assay results taken from patent US20120302566A1, “INDANYLOXYDIHYDROBENZOFURANYLACETIC ACIDS” (BOEHRINGER INGELHEIM INTERNATIONAL GMBH, priority 2010, published 2012).

Experiments:
[1] = target: T1, human GPR40 receptor (Homo sapiens, UniProt O14842); assay: Cytosolic calcium measurement using the FLIPR system; type: cell-based; conditions: FLIPR cytosolic Ca2+ peak height; 1321N1 cells stably expressing human GPR40; read-out: EC50 values on GPR40 determined as described in (A)
Method: (A) Cytosolic calcium measurement using the FLIPR system—1321N1 cells stably expressing human GPR40 receptor (Euroscreen, Belgium) were seeded 24 h before the assay in black clear-bottom collagen-coated 384-well plates in culture medium containing 10% FCS, 1% Na-Pyruvate and 400 μg/ml G418. On the assay day, wells were washed twice with 100 μL Krebs Ringer Buffer (KRB) containing 15 mM sodium hydrogencarbonate and 30 mM Hepes leaving 20 μl rest volume per well. Prior to stimulation the cells were loaded with the Ca^2+-sensitive fluorescent dye from the Calcium4 Assay Kit™ according to the Manufacturer's description (MDS Analytical technologies, Ismaning, Germany) for 80 min at room temperature in the dark, in the presence of 4 mM probenicid. Changes in cytosolic Ca^2+ concentration upon compound addition were monitored using a FLIPR Tetra device (Fluorescence Imaging Plate Reader; MDS Analytical technologies). The peak height of the obtained fluorescence signal was then used to calculate the EC50 values using GraphPad Prism 5 (Graphpad Software Inc, USA) using a sigmoidal curve fitting procedure allowing for a variable hill slope.

[2] = target: T1, human GPR40 receptor; assay: IP1 accumulation measurements using the IPOne assay system; type: cell-based; conditions: IP1 accumulation (IPOne HTRF), 1 hour stimulation; 1321N1 cells stably expressing human GPR40; read-out: EC50 values on GPR40 determined as described in (B)
In short: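 1321N1 cells stably expressing human GPR40 were stimulated with compounds for 1 h at 37° in pH 7.4 HEPES buffer with 50 mM final LiCl. IP1 accumulation was then read by HTRF (IP1-d2/anti-IP1 Tb cryptate) after 1 h lysis at room temperature.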

T1 sequence (O14842 whole entry): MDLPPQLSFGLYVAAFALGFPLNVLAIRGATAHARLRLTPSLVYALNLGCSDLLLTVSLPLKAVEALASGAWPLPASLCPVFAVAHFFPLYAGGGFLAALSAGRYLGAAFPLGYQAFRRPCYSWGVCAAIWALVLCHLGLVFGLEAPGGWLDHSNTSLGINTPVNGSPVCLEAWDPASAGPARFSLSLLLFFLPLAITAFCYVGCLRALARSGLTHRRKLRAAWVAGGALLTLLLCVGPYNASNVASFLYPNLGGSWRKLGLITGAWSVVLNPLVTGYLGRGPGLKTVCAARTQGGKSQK

| SMILES | EC50 [1] [nM] | EC50 [2] [nM] |
| --- | --- | --- |
| CC1(C)CCC=C1c1cccc2c1CC[C@H]2Oc1ccc2c(c1)OCC2CC(=O)O (mixture of isomers) [Example 15, {6-[(R)-4-(5,5-Dimethyl-cyclopent-1-enyl)-indan-1-yloxy]-2,3-dihydro-benzofuran-3-yl}-acetic acid] | 3840 | 30 |
| O=C(O)CC1COc2cc(O[C@@H]3CCc4c(C5CCOCC5)cccc43)ccc21 (stereo partly drawn) [Example 12, {6-[(R)-4-(Tetrahydro-pyran-4-yl)-indan-1-yloxy]-2,3-dihydro-benzofuran-3-yl}-acetic acid] | 459 | 2690 |
| O=C(O)C[C@H]1COc2cc(O[C@H]3CCc4c3cccc4C(F)(F)F)ccc21 (single isomer, unassigned) [Example 2, [6-(4-Trifluoromethyl-indan-1-yloxy)-2,3-dihydro-benzofuran-3-yl]-acetic acid] | 27 | 20 |
| COC1(c2cccc3c2CC[C@H]3Oc2ccc3c(c2)OC[C@H]3CC(=O)O)CCC1 [Example 18, {(S)-6-[(R)-4-(1-Methoxy-cyclobutyl)-indan-1-yloxy]-2,3-dihydro-benzofuran-3-yl}-acetic acid] | 21 | 162 |
| Cn1ccc(-c2cccc3c2CC[C@H]3Oc2ccc3c(c2)OCC3CC(=O)O)cc1=O (stereo partly drawn) [Example 9, {6-[(R)-4-(1-Methyl-2-oxo-1,2-dihydro-pyridin-4-yl)-indan-1-yloxy]-2,3-dihydro-benzofuran-3-yl}-acetic acid] | 3250 | > 10000 |
| CC1(C)CCCC1c1cccc2c1CC[C@H]2Oc1ccc2c(c1)OCC2CC(=O)O (stereo partly drawn) [Example 16, {6-[(R)-4-(2,2-Dimethyl-cyclopentyl)-indan-1-yloxy]-2,3-dihydro-benzofuran-3-yl}-acetic acid] | 3190 | 47 |
| COC(c1cccc2c1CCC2Oc1ccc2c(c1)OCC2CC(=O)O)C(C)(C)C (stereo not shown) [Example 13, {6-[4-(1-Methoxy-2,2-dimethyl-propyl)-indan-1-yloxy]-2,3-dihydro-benzofuran-3-yl}-acetic acid] | 583 | 43 |
| O=C(O)CC1COc2cc(O[C@@H]3CCc4c(Br)cccc43)ccc21 (mixture of isomers) [Example 6, {6-[(R)-4-Bromo-indan-1-yloxy]-2,3-dihydro-benzofuran-3-yl}-acetic acid] | 49 | 62 |
| Cn1cc(-c2cccc3c2CC[C@H]3Oc2ccc3c(c2)OCC3CC(=O)O)cn1 (stereo partly drawn) [Example 7, {6-[(R)-4-(1-Methyl-1H-pyrazol-4-yl)-indan-1-yloxy]-2,3-dihydro-benzofuran-3-yl}-acetic acid] | 710 | 2000 |
| COc1ccc(-c2cccc3c2CC[C@H]3Oc2ccc3c(c2)OCC3CC(=O)O)cc1 (stereo partly drawn) [Example 10, {6-[(R)-4-(4-Methoxy-phenyl)-indan-1-yloxy]-2,3-dihydro-benzofuran-3-yl}-acetic acid] | 333 | 178 |
| O=C(O)CC1COc2cc(O[C@@H]3CCc4c(C5=CCOCC5)cccc43)ccc21 (stereo partly drawn) [Example 8, {6-[(R)-4-(3,6-Dihydro-2H-pyran-4-yl)-indan-1-yloxy]-2,3-dihydro-benzofuran-3-yl}-acetic acid] | 312 | 1570 |
| COC(c1cccc2c1CCC2Oc1ccc2c(c1)OCC2CC(=O)O)C(F)F (stereo not shown) [Example 11, {6-[4-(2,2-Difluoro-1-methoxy-ethyl)-indan-1-yloxy]-2,3-dihydro-benzofuran-3-yl}-acetic acid] | 628 | 2230 |
| O=C(O)C[C@@H]1COc2cc(O[C@@H]3CCc4c(OC(F)F)cccc43)ccc21 [Example 17, {(S)-6-[(R)-4-Difluoromethoxy-indan-1-yloxy]-2,3-dihydro-benzofuran-3-yl}-acetic acid] | 111 | 139 |
| COC(c1cccc2c1CCC2Oc1ccc2c(c1)OC[C@H]2CC(=O)O)C1CCC1 (stereo partly drawn) [Example 14, {(S)-6-[4-(Cyclobutyl-methoxy-methyl)-indan-1-yloxy]-2,3-dihydro-benzofuran-3-yl}-acetic acid] | 364 | 125 |
| O=C(O)C[C@H]1COc2cc(O[C@H]3CCc4c3cccc4C(F)(F)F)ccc21 (single isomer, unassigned) [Example 5, [6-(4-Trifluoromethyl-indan-1-yloxy)-2,3-dihydro-benzofuran-3-yl]-acetic acid] | 2280 | 8990 |
| O=C(O)CC1COc2cc(OC3CCc4c3cccc4C(F)(F)F)ccc21 (mixture of isomers) [Example 1, [6-(4-Trifluoromethyl-indan-1-yloxy)-2,3-dihydro-benzofuran-3-yl]-acetic acid] | 50 | 69 |
| O=C(O)C[C@H]1COc2cc(O[C@H]3CCc4c3cccc4C(F)(F)F)ccc21 (stereo in doubt) [3/4, [6-(4-Trifluoromethyl-indan-1-yloxy)-2,3-dihydro-benzofuran-3-yl]-acetic acid] | 186 | 501 |
